Laboratory results: paper PMC9468552 (Clinical and Translational Science, 2022)

What was measured:
[1] = biological target: T1, CYP1A2 (Homo sapiens, UniProt P05177); experiment: Study 004: DDI of EDP‐305; format: in vivo; details: for Cmax: human, plasma, oral, Geo LSMean
T1 sequence (P05177 1-516): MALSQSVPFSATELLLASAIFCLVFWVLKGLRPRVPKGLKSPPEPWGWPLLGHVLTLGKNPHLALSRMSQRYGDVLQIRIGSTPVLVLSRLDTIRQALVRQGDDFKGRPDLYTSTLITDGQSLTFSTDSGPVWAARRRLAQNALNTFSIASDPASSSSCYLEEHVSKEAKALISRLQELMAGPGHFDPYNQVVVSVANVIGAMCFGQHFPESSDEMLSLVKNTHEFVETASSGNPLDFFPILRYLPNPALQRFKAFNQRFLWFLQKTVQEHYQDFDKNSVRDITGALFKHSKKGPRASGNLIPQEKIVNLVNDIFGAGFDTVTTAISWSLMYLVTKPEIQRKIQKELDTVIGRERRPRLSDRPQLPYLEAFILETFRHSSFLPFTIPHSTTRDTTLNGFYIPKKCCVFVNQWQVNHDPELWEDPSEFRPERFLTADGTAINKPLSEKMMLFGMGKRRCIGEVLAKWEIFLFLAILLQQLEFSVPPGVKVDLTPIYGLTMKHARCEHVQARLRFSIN

[2] = biological target: T2, CYP3A4 (Homo sapiens, UniProt P08684); experiment: Study 008: effect of EDP‐305 on combined oral contraceptive; format: in vivo; details: for AUC0,t, Geo LSMean ratio (90% CI) / Cmax, Geo LSMean ratio (90% CI): OC + EDP‐305 vs OC alone; for AUC(0-t) / Cmax: human, plasma, oral, Geo LSMean, day 21; for AUC(0-t): AUC0,t
[3] = biological target: T2, CYP3A4; experiment: Study 004: DDI of EDP‐305; format: in vivo; details: for Cmax: human, plasma, oral, Geo LSMean
[4] = tested on: OATP1B1/B3 and BCRP; experiment: Study 004: DDI of EDP‐305; format: in vivo, human
[5] = caffeine + EDP‐305 vs caffeine alone
[6] = OC + EDP‐305 2.5 mg tablet (test)
[7] = midazolam 2 mg + EDP‐305 10 mg (test)
[8] = midazolam + EDP‐305 vs midazolam alone
[9] = rosuvastatin + EDP‐305 vs rosuvastatin alone

T2 sequence (P08684 whole entry): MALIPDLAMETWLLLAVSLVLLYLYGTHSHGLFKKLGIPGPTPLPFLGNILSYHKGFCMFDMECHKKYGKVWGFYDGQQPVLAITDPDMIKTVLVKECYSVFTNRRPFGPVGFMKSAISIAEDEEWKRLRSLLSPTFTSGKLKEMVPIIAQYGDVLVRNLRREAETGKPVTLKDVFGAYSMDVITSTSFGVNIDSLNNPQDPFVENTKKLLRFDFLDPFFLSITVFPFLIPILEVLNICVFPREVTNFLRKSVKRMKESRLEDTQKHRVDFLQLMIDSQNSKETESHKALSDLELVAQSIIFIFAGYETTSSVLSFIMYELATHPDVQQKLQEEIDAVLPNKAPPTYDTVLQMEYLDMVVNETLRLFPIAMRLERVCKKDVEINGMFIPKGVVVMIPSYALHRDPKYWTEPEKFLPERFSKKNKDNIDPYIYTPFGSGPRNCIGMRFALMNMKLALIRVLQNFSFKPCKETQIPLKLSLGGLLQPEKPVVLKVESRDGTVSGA

Cn1c(=O)c2c(ncn2C)n(C)c1=O [caffeine] was tested, and the “delayed Tmax (increase)” value [1, 5] was 50%, the “effect on Vd/F” value [1, 5] was “little effect” and the “increase in AUC0‐t” value [1, 5] was 1.90 fold. The “longer t1/2 (increase)” value [1, 5] was 64%, the “lower CL/F (decrease)” value [1, 5] was 45% and the Cmax ([1]; 200 mg, caffeine 200 mg alone (reference)) was 4190 ng/mL. The Cmax ([1]; caffeine 200 mg + EDP‐305 10 mg (test)) was 4720 ng/mL.
With C#C[C@]1(O)CC[C@H]2[C@@H]3CCc4cc(O)ccc4[C@H]3CC[C@@]21C [ethinyl estradiol] the “AUC0,t, Geo LSMean ratio (90% CI)” value [2] was 1.08 (1.00, 1.16), the “Cmax, Geo LSMean ratio (90% CI)” value [2] was 1.08 (0.99, 1.19) and the AUC(0-t) ([2]; OC alone (reference)) was 1.25 ng·h/mL. The Cmax [2, 6] was 0.148 ng/mL, the Cmax ([2]; OC alone (reference)) was 0.137 ng/mL and the “Peak and systemic exposures (Cmax and AUC0‐τ), OC + EDP‐305 vs OC alone” value ([2]; in words) was “similar”.
C#C[C@]1(O)CC[C@H]2[C@@H]3CCC4=CC(=O)CC[C@@H]4[C@H]3CC[C@@]21CC [levonorgestrel] was tested, and the “AUC0,t, Geo LSMean ratio (90% CI)” value [2] was 1.31 (1.23, 1.39), the “Cmax, Geo LSMean ratio (90% CI)” value [2] was 1.29 (1.21, 1.38) and the AUC(0-t) ([2]; OC alone (reference)) was 57.2 ng·h/mL. The Cmax [2, 6] was 3.85 ng/mL and the Cmax ([2]; OC alone (reference)) was 2.99 ng/mL.
With Cc1ncc2n1-c1ccc(Cl)cc1C(c1ccccc1F)=NC2 [midazolam] the Cmax ([3]; 2 mg, midazolam 2 mg alone (reference)) was 7.51 ng/mL, the Cmax [3, 7] was 9.41 ng/mL and the “AUC0,inf, Geo LSMean” value [3, 7] was 32.22 ng·h/mL. For the same compound, the “delayed Tmax (increase)” value [3, 8] was 98%, the “increase in AUC0‐t” value [3, 8] was 1.53 fold and the “longer t1/2 (increase)” value [3, 8] was 34%. The “lower CL/F (decrease)” value [3, 8] was 36% and the “lower Vd/F (decrease)” value [3, 8] was 14%.
For CC(C)c1nc(N(C)S(C)(=O)=O)nc(-c2ccc(F)cc2)c1/C=C/[C@@H](O)C[C@@H](O)CC(=O)O [rosuvastatin], the Cmax ([4]; human, plasma, oral, Cmax, Geo LSMean, rosuvastatin 20 mg + EDP‐305 10 mg (test)) was 5.59 ng/mL, the “effect on Tmax” value [4, 9] was “no apparent effect” and the “increase in AUC0‐t” value [4, 9] was 1.24 fold. The “longer t1/2 (increase)” value [4, 9] was 17% and the “lower CL/F (decrease)” value [4, 9] was 20%.
